Read-outs that look alike come from different tables or passages of the source.
Key:
S. pyogenes (ATCC 51339) = experiment: Bacterial assay: MIC against S. pyogenes; assay type: cell-based, Streptococcus pyogenes; conditions: Streptococcus pyogenes, ATCC51339, read-out: minimal inhibitory concentration (MIC)
S. pneumoniae ATCC6301 = experiment: Mouse survival model (lung infection); assay type: in vivo; conditions: CD-1 mice
Procedure: Anaesthetised female CD-1 mice (18-22 g) were inoculated intranasally with approximately 10^6 cfus of S. pneumoniae ATCC6301 prepared from a fresh overnight culture by placing 50 μl of inoculum on the nares and allowing the mice to inhale. Compounds are administered as indicated at 24, 48 and 72 hours post inoculation and the mice monitored for survival for seven or nine days after infection. […] Similarly, when Compound 17 was dosed IV at 30 mg/kg 90% of mice survived at day seven.

[1] = test system: H. influenzae (ATCC 49247); experiment: Bacterial assay: MIC against H. influenzae; assay type: cell-based; conditions: Haemophilus influenzae
S. aureus (ATCC 29213) = experiment: Bacterial assay: MIC against S. aureus; assay type: cell-based, Staphylococcus aureus; conditions: Staphylococcus aureus, ATCC29213, read-out: minimal inhibitory concentration (MIC)
[2] = ATCC49247, H. influenzae ATCC 49247, read-out: minimal inhibitory concentration (MIC)

## CCNC(=O)Nc1nc2cc(-c3cnc(C(C)O)nc3)cc(-c3ccccn3)c2s1 (centres unmarked) [Compound 17, 1-ethyl-3-[5-[2-(1-hydroxyethyl)pyrimidin-5-yl]-7-(2-pyridyl)-1,3-benzothiazol-2-yl]urea]
S. pyogenes (ATCC 51339)
  MIC: ≤ 1 µg/mL
S. pneumoniae ATCC6301; IV 30 mg/kg, at day seven
  mice survived: 90%
[1]; [2]
  MIC: ≤ 2 µg/mL
S. aureus (ATCC 29213)
  MIC: ≤ 1 µg/mL

## CCNC(=O)Nc1nc2cc(-c3cnc(C(C)O)nc3)cc(-c3cc(CP(=O)(OCC)OCC)ccn3)c2s1 (centres unmarked) [Compound 100, 1-[7-[4-(diethoxyphosphorylmethyl)-2-pyridyl]-5-[2-(1-hydroxyethyl)pyrimidin-5-yl]-1,3-benzothiazol-2-yl]-3-ethyl-urea]
S. pyogenes (ATCC 51339)
  MIC: ≤ 1 µg/mL
[1]; ATCC49247, read-out: minimal inhibitory concentration (MIC)
  MIC: ≤ 2 µg/mL
S. aureus (ATCC 29213)
  MIC: ≤ 1 µg/mL

## CCNC(=O)Nc1nc2cc(-c3cnc(C(C)O)nc3)cc(-c3cc(OCC4CCCO4)ccn3)c2s1 (centres unmarked) [Compound 104, 1-ethyl-3-[5-[2-(1-hydroxyethyl)pyrimidin-5-yl]-7-[4-(tetrahydrofuran-2-ylmethoxy)-2-pyridyl]-1,3-benzothiazol-2-yl]urea]
S. pyogenes (ATCC 51339)
  MIC: ≤ 1 µg/mL
[1]; [2]
  MIC: ≤ 2 µg/mL
S. aureus (ATCC 29213)
  MIC: ≤ 1 µg/mL

## CCNC(=O)Nc1nc2cc(-c3cnc(C4(O)CCOCC4)nc3)cc(-c3ccccn3)c2s1 [Compound 111, 1-ethyl-3-[5-[2-(4-hydroxytetrahydropyran-4-yl)pyrimidin-5-yl]-7-(2-pyridyl)-1,3-benzothiazol-2-yl]urea]
S. pyogenes (ATCC 51339)
  MIC: ≤ 1 µg/mL
[1]; [2]
  MIC: ≤ 2 µg/mL
S. aureus (ATCC 29213)
  MIC: ≤ 1 µg/mL

## CCNC(=O)Nc1nc2cc(-c3cnc(C4(O)COC4)nc3)cc(-c3ccccn3)c2s1 [Compound 113, 1-ethyl-3-[5-[2-(3-hydroxyoxetan-3-yl)pyrimidin-5-yl]-7-(2-pyridyl)-1,3-benzothiazol-2-yl]urea]
S. pyogenes (ATCC 51339)
  MIC: ≤ 1 µg/mL
[1]; [2]
  MIC: ≤ 2 µg/mL
S. aureus (ATCC 29213)
  MIC: ≤ 1 µg/mL

## CCNC(=O)Nc1nc2cc(-c3cnc(C(C)(C)O)nc3)cc(-c3cc(CN4CC(C)(OC)C4)ccn3)c2s1 [Compound 114, 1-ethyl-3-[5-[2-(1-hydroxy-1-methyl-ethyl)pyrimidin-5-yl]-7-[4-[(3-methoxy-3-methyl-azetidin-1-yl)methyl]-2-pyridyl]-1,3-benzothiazol-2-yl]urea]
S. pyogenes (ATCC 51339)
  MIC: ≤ 1 µg/mL
[1]; [2]
  MIC: ≤ 2 µg/mL
S. aureus (ATCC 29213)
  MIC: ≤ 1 µg/mL

## CCNC(=O)Nc1nc2cc(-c3cnc(C(C)O)nc3)cc(-c3ncccn3)c2s1 (centres unmarked) [Compound 115, 1-ethyl-3-[5-[2-(1-hydroxyethyl)pyrimidin-5-yl]-7-pyrimidin-2-yl-1,3-benzothiazol-2-yl]urea]
S. pyogenes (ATCC 51339)
  MIC: ≤ 1 µg/mL
[1]; [2]
  MIC: ≤ 2 µg/mL
S. aureus (ATCC 29213)
  MIC: ≤ 1 µg/mL

## CCNC(=O)Nc1nc2cc(-c3ccc(C(O)C(F)(F)F)nc3)cc(-c3cc(OCCN4CCOCC4)ccn3)c2s1 (centres unmarked) [Compound 116, 1-ethyl-3-[7-[4-(2-morpholinoethoxy)-2-pyridyl]-5-[6-(2,2,2-trifluoro-1-hydroxy-ethyl)-3-pyridyl]-1,3-benzothiazol-2-yl]urea]
S. pyogenes (ATCC 51339)
  MIC: ≤ 1 µg/mL
[1]; [2]
  MIC: ≤ 2 µg/mL
S. aureus (ATCC 29213)
  MIC: ≤ 1 µg/mL

## CCNC(=O)Nc1nc2cc(-c3cnc(C4(O)CCCC4)nc3)cc(-c3ccccn3)c2s1 [Compound 119, 1-ethyl-3-[5-[2-(1-hydroxycyclopentyl)pyrimidin-5-yl]-7-(2-pyridyl)-1,3-benzothiazol-2-yl]urea]
S. pyogenes (ATCC 51339)
  MIC: ≤ 1 µg/mL
[1]; [2]
  MIC: ≤ 2 µg/mL
S. aureus (ATCC 29213)
  MIC: ≤ 1 µg/mL

## CCNC(=O)Nc1nc2cc(-c3cnc([C@@H](C)O)nc3)cc(-c3cc(CN4CCOCC4)ccn3)c2s1 [Compound 121, 1-ethyl-3-[5-[2-[(1R)-1-hydroxyethyl]pyrimidin-5-yl]-7-[4-(morpholinomethyl)-2-pyridyl]-1,3-benzothiazol-2-yl]urea]
S. pyogenes (ATCC 51339)
  MIC: ≤ 1 µg/mL
[1]; [2]
  MIC: ≤ 2 µg/mL
S. aureus (ATCC 29213)
  MIC: ≤ 1 µg/mL

## CCNC(=O)Nc1nc2cc(-c3cnc([C@H](C)O)nc3)cc(-c3cc(CN4CCOCC4)ccn3)c2s1 [Compound 122, 1-ethyl-3-[5-[2-[(1S)-1-hydroxyethyl]pyrimidin-5-yl]-7-[4-(morpholinomethyl)-2-pyridyl]-1,3-benzothiazol-2-yl]urea]
S. pyogenes (ATCC 51339)
  MIC: ≤ 1 µg/mL
[1]; [2]
  MIC: ≤ 2 µg/mL
S. aureus (ATCC 29213)
  MIC: ≤ 1 µg/mL

## CCNC(=O)Nc1nc2cc(-c3cnc(C4(O)CCOCC4)nc3)cc(-c3cc(CN4CCOCC4)ccn3)c2s1 [Compound 125, 1-ethyl-3-[5-[2-(4-hydroxytetrahydropyran-4-yl)pyrimidin-5-yl]-7-[4-(morpholinomethyl)-2-pyridyl]-1,3-benzothiazol-2-yl]urea]
S. pyogenes (ATCC 51339)
  MIC: ≤ 1 µg/mL
[1]; [2]
  MIC: ≤ 2 µg/mL
S. aureus (ATCC 29213)
  MIC: ≤ 1 µg/mL

## CCNC(=O)Nc1nc2cc(-c3cnc(C4(O)CCSCC4)nc3)cc(-c3ccccn3)c2s1 [Compound 127, 1-ethyl-3-[5-[2-(4-hydroxytetrahydrothiopyran-4-yl)pyrimidin-5-yl]-7-(2-pyridyl)-1,3-benzothiazol-2-yl]urea]
S. pyogenes (ATCC 51339)
  MIC: ≤ 1 µg/mL
[1]; [2]
  MIC: ≤ 2 µg/mL
S. aureus (ATCC 29213)
  MIC: ≤ 1 µg/mL

## CCNC(=O)Nc1nc2cc(-c3cnc(C4(O)COC4)nc3)cc(-c3cc(CN4CCOCC4)ccn3)c2s1 [Compound 154, 1-ethyl-3-[5-[2-(3-hydroxyoxetan-3-yl)pyrimidin-5-yl]-7-[4-(morpholinomethyl)-2-pyridyl]-1,3-benzothiazol-2-yl]urea]
S. pyogenes (ATCC 51339)
  MIC: ≤ 1 µg/mL
[1]; [2]
  MIC: ≤ 2 µg/mL
S. aureus (ATCC 29213)
  MIC: ≤ 1 µg/mL

## CCNC(=O)Nc1nc2cc(-c3ccc(C(O)C(F)(F)F)nc3)cc(-c3cc(CN4CC(OC)C4)ccn3)c2s1 (centres unmarked) [Compound 155, 1-ethyl-3-[7-[4-[(3-methoxyazetidin-1-yl)methyl]-2-pyridyl]-5-[6-[2,2,2-trifluoro-1-hydroxy-ethyl]-3-pyridyl]-1,3-benzothiazol-2-yl]urea]
S. pyogenes (ATCC 51339)
  MIC: ≤ 1 µg/mL
[1]; [2]
  MIC: ≤ 2 µg/mL
S. aureus (ATCC 29213)
  MIC: ≤ 1 µg/mL

## CCNC(=O)Nc1nc2cc(-c3cnc(C(C)(O)CO)nc3)cc(-c3ccccn3)c2s1 (centres unmarked) [Compound 157, 1-[5-[2-[1,2-dihydroxy-1-methyl-ethyl]pyrimidin-5-yl]-7-(2-pyridyl)-1,3-benzothiazol-2-yl]-3-ethyl-urea]
S. pyogenes (ATCC 51339)
  MIC: ≤ 1 µg/mL
[1]; [2]
  MIC: ≤ 2 µg/mL
S. aureus (ATCC 29213)
  MIC: ≤ 1 µg/mL

## CCNC(=O)Nc1nc2cc(-c3cnc(C(C)O)nc3)cc(-c3ccc(C)cn3)c2s1 (centres unmarked) [Compound 158, 1-ethyl-3-[5-[2-[1-hydroxyethyl]pyrimidin-5-yl]-7-(5-methyl-2-pyridyl)-1,3-benzothiazol-2-yl]urea]
S. pyogenes (ATCC 51339)
  MIC: ≤ 1 µg/mL
[1]; [2]
  MIC: ≤ 2 µg/mL
S. aureus (ATCC 29213)
  MIC: ≤ 1 µg/mL

## CCNC(=O)Nc1nc2cc(-c3cnc(C(C)O)nc3)cc(-c3ccc(C(C)O)cn3)c2s1 (centres unmarked) [Compound 168, 1-ethyl-3-[7-[5-(1-hydroxyethyl)-2-pyridyl]-5-[2-(1-hydroxyethyl)pyrimidin-5-yl]-1,3-benzothiazol-2-yl]urea]
S. pyogenes (ATCC 51339)
  MIC: ≤ 1 µg/mL
[1]; [2]
  MIC: ≤ 2 µg/mL
S. aureus (ATCC 29213)
  MIC: ≤ 1 µg/mL

## CCNC(=O)Nc1nc2cc(-c3cnc(C4(O)CCS(=O)(=O)CC4)nc3)cc(-c3ccccn3)c2s1 [Compound 173, 1-ethyl-3-[5-[2-(4-hydroxy-1,1-dioxo-thian-4-yl)pyrimidin-5-yl]-7-(2-pyridyl)-1,3-benzothiazol-2-yl]urea]
S. pyogenes (ATCC 51339)
  MIC: ≤ 1 µg/mL
[1]; [2]
  MIC: ≤ 2 µg/mL
S. aureus (ATCC 29213)
  MIC: ≤ 1 µg/mL

## CCNC(=O)Nc1nc2cc(-c3cnc(C(C)(C)O)nc3)cc(-c3cc(CN4CC(OCC)C4)ccn3)c2s1 [Compound 175, 1-[7-[4-[(3-ethoxyazetidin-1-yl)methyl]-2-pyridyl]-5-[2-(1-hydroxy-1-methyl-ethyl)pyrimidin-5-yl]-1,3-benzothiazol-2-yl]-3-ethyl-urea]
S. pyogenes (ATCC 51339)
  MIC: ≤ 1 µg/mL
[1]; [2]
  MIC: ≤ 2 µg/mL
S. aureus (ATCC 29213)
  MIC: ≤ 1 µg/mL

## CCNC(=O)Nc1nc2cc(-c3cnc(C(C)O)nc3)cc(-c3nccc(OC)c3F)c2s1 (centres unmarked) [Compound 178, 1-ethyl-3-[7-(3-fluoro-4-methoxy-2-pyridyl)-5-[2-[1-hydroxyethyl]pyrimidin-5-yl]-1,3-benzothiazol-2-yl]urea]
S. pyogenes (ATCC 51339)
  MIC: ≤ 1 µg/mL
[1]; [2]
  MIC: ≤ 2 µg/mL
S. aureus (ATCC 29213)
  MIC: ≤ 1 µg/mL

## CCNC(=O)Nc1nc2cc(-c3cnc(C(C)O)nc3)cc(-c3cc(CN4CCSCC4)ccn3)c2s1 (centres unmarked) [Compound 185, 1-ethyl-3-[5-[2-[1-hydroxyethyl]pyrimidin-5-yl]-7-[4-(thiomorpholinomethyl)-2-pyridyl]-1,3-benzothiazol-2-yl]urea]
S. pyogenes (ATCC 51339)
  MIC: ≤ 1 µg/mL
[1]; [2]
  MIC: ≤ 2 µg/mL
S. aureus (ATCC 29213)
  MIC: ≤ 1 µg/mL

## CCNC(=O)Nc1nc2cc(-c3cnc(C(C)(C)O)nc3)cc(-c3cc(CN4CCSCC4)ccn3)c2s1 [Compound 187, 1-ethyl-3-[5-[2-(1-hydroxy-1-methyl-ethyl)pyrimidin-5-yl]-7-[4-(thiomorpholinomethyl)-2-pyridyl]-1,3-benzothiazol-2-yl]urea]
S. pyogenes (ATCC 51339)
  MIC: ≤ 1 µg/mL
[1]; [2]
  MIC: ≤ 2 µg/mL
S. aureus (ATCC 29213)
  MIC: ≤ 1 µg/mL

## CC(=O)NC[C@H]1CN(c2ccc(N3CCOCC3)c(F)c2)C(=O)O1 [Linezolid, reference compound]
S. pneumoniae ATCC6301; 10 mg/kg
  survival outcome: dead by day six

Reference: patent US20170260178A1 (SPERO GYRASE, INC., priority 2012, published 2017)
